In patent US7052871B2, “Methods of improving transformation efficiency of plants with auxin responsive promoter sequences” (Pioneer Hi-Bred International, Inc., priority 2000, dated 2006):

How the values were obtained:
[1] = tested on: ZmAxig1 mRNA; experiment: Northern blot of mRNA from treated plants probed with SEQ ID No. 12 (CJLP181); format: in vivo, Zea mays; details: for hybridization of SEQ ID No. 12 probe with mRNA from anther or entire aerial portion of treated plants: anther or entire aerial portion of treated plants (FIG. 4)
[2] = tested on: ZmAxig1 mRNA in BMS (Black Mexican Sweet) maize cells; experiment: Northern blot of mRNA from BMS cells cultured on auxin-containing medium, probed with SEQ ID No. 12; format: cell-based, Zea mays; details: BMS cultured cells (FIG. 4)
[3] = tested on: male fertility of pZmAxig1:Ms45 plants; experiment: Fertility restoration in ms45 male sterile maize plants transformed with V2 (pZmAxig1:Ms45); format: in vivo, Zea mays
Description: A second DNA plasmid was constructed by combining the ZmAxig1 promoter (1306 bases 5′ of start codon; SEQ ID NO: 16) with the Ms45 coding sequence and 35S:PAT in a T-DNA vector. This plasmid was cointegrated with Japan Tobacco plasmid pSB1 to create a second suitable vector, V2.
Maize GS3Ms45EX4 embryos, segregating for homozygous ms45 (male sterile) and Ms45/ms45 (male fertile) genotypes, were transformed with the first and second vectors using Agrobacterium.
Transformed cell lines homozygous for the ms45 male sterile genotype were screened by quantitative PCR screening and advanced for regeneration into plants. Positive lines were transferred to 289B medium, an MS-based medium containing bialaphos and carbenicillin, with lower sucrose and hormone levels, to initiate plant regeneration. Following somatic embryo maturation (2–3 weeks), well-developed somatic embryos were transferred to medium for germination and transferred to the lighted culture room. Approximately 7 days later, developing plantlets were transferred to medium in tubes for 7 days until plantlets were well established. Plants were then transferred to inserts in flats (equivalent to 2.5″ pot) containing potting soil and grown for one week in a growth chamber, subsequently grown an additional 1–2 weeks in the greenhouse, then transferred to classic 600 pots (1.6 gallon) and grown to maturity.
From each of 20 independent callus lines transformed with V2, six regenerated plants were grown in the greenhouse. […] The plants were scored for fertility after tassels emerged.

[4] = tested on: cDNA fragments (w0h051.7, ZmAxig1); details: anthers; two daily soil drenches of 12 μl dicamba formulation in 450 ml water
Description: Anthers containing microsporocytes at meiosis […] through early uninucleate stages of development were harvested on the third day and frozen. Anthers containing microsporocytes at prophase through early uninucleate stages of development were harvested from non-treated plants. Frozen tissues were ground and total RNA extracted with Tripure™ isolation reagent (Boehringer Mannheim, Indianapolis, Ind.) according to the manufacturer's instructions.
RNA isolated from anthers of three dicamba-treated plants and three non-treated plants was sent to laboratories of CuraGen Corporation (New Haven, Conn.) for quantitative expression profiling. […] (FIG. 3)

[5] = tested on: ZmAxig1 expression in anthers
Description: Progeny of transgenic maize plants, hemizygous for the maize anther-preferred promoter 5126 (U.S. Pat. Nos. 5,689,049 and 5,689,051) driving DAM methylase linked with 35S:PAT (p5126:DAM/35S:PAT), were grown in the greenhouse. Expression of p5126:DAM is known to ablate the tapetum prior to the quartet stage of microspore development, which results in male sterile plants.
Plants segregating for male fertile/glufosinate-ammonium susceptible phenotype (wild-type) or for male sterile/glufosinate-ammonium resistant phenotype (p5126:DAM/35S:PAT), were treated with a dicamba soil drench as described above, or were not treated. Quartet/early-uninucleate stage anthers were harvested from these plants and mRNA was isolated with the QuickPrep® Micro mRNA purification kit (Amersham Pharmacia, Piscataway, N.J.) according to the manufacturer's instructions.
(§1) Quartet/early-uninucleate stage anthers from dicamba-treated or non-treated plants were harvested and embedded for in situ hybridization or frozen for mRNA isolation as described above.

[6] = tested on: ZmAxig1 transcripts in the tapetum; details: treated plants (FIG. 7)
Description: as §1

For NC(=O)NS(=O)(=O)c1ccccc1Cl [CBSU], the “hybridization of SEQ ID No. 12 probe with mRNA from anther or entire aerial portion of treated plants” value [1] was “did not hybridize”.
O=C(O)COc1ccc(Cl)cc1Cl [2,4-D, 2,4-dichlorophenoxyacetic acid] was tested, and the “hybridization of SEQ ID No. 12 probe with mRNA from BMS maize cultured on medium containing the auxin” value [2] was “hybridized”.
With C=CCN(CC=C)C(=O)C(Cl)Cl [Dichlormid] the “hybridization of SEQ ID No. 12 probe with mRNA from anther or entire aerial portion of treated plants” value [1] was “did not hybridize”.
For COCC(=O)N(c1c(C)cccc1C)C(C)C(=O)OC (stereo not shown) [Metalaxyl], the “hybridization of SEQ ID No. 12 probe with mRNA from anther or entire aerial portion of treated plants” value [1] was “did not hybridize”.
With CN(C)C(=O)Nc1ccc(Cl)c(Cl)c1 [Diuron] the “hybridization of SEQ ID No. 12 probe with mRNA from anther or entire aerial portion of treated plants” value [1] was “did not hybridize”.
In the case of O=C(O)c1nc(Cl)ccc1Cl [clopyralid], the “plants showing partial to complete male fertile phenotypes, foliar application” value ([3]; 10 μl clopyralid formulation, foliar application with 1 ml water, homozygous ms45 V2 progeny) is reported as “Two of five” and the “plants showing partial to complete male fertile phenotypes, soil drench application” value ([3]; 10 μl clopyralid formulation, soil drench with 200 ml water, homozygous ms45 V2 progeny) is reported as “three of six”.
COc1c(Cl)ccc(Cl)c1C(=O)O [dicamba] was tested, and the “hybridization of SEQ ID No. 12 probe with mRNA from anthers of treated plants” value ([1]; anthers, northern blot (FIG. 3)) was “hybridized very strongly”, the “hybridization of SEQ ID No. 12 probe with mRNA from tassel or whorl leaf of treated plants” value ([1]; tassel or whorl leaf, northern blot (FIG. 3)) was “to a lesser degree” and the “plants with fertile phenotype” value ([3]; of 81 treated V2 plants) was 33 plants. The “plants with shedder (partially fertile) phenotype” value ([3]; of 81 treated V2 plants) was 36 plants, the “plants that produced anthers with pollen” value ([3]; of 81 treated V2 plants, daily soil drench 3 μl dicamba formulation, one to three days) was 69 plants and the “viability of pollen from treated plants” value ([3]; pollen from 9 treated plants used to pollinate non-transformed ears, kernels germinated) was “viable”. For the same molecule, the “expression level of induced cDNA fragments relative to the control” value [4] was “greater than 2.5 fold”, the “ZmAxig1 expression in anthers of treated plants (Northern blot)” value ([5]; quartet/early-uninucleate stage anthers) was “induced” and the “induction of ZmAxig1 expression in anthers from wild-type male fertile plants” value ([5]; soil drench, quartet/early-uninucleate stage anthers (FIG. 6)) was “induced expression of ZmAxig1”. For the same molecule, the “induction of ZmAxig1 expression in anthers from male sterile p5126:DAM/35S:PAT plants” value ([5]; soil drench, tapetum-ablated male sterile plants (FIG. 6)) was “not in anthers from male sterile plants” and the “in situ hybridization of ZmAxig1 antisense RNA probe to RNA in tapetum of anthers and microspores” value [6] was “strong in situ hybridization”.
CC1=C(C(=O)Nc2ccccc2)SCCO1 [Carboxin] was tested, and the “hybridization of SEQ ID No. 12 probe with mRNA from anther or entire aerial portion of treated plants” value [1] was “did not hybridize”.
